One data set has as its system A2780 ovarian. Nature of the data set: MTT growth inhibition assay, 72 h. In kind it is cell-based, human.
Data set [1] in a line: Lipophilicity by HPLC (log kw). In kind it is physicochemical. To be noted: chromatographic lipophilicity index, extrapolated to 100% d.i.H2O. The text has this:
For lipophilicity measurements, HPLC was utilized instead of the traditional shake-flask method, as described. A few studies have also reported the important and effective use of HPLC to measure the lipophilicity of compounds [66, 67]. Each complex was eluted under several isocratic ratios. A standard curve was then generated to calculate the log value of the capacity factor (log k) according to eqn (1). Following eqn (2), the percentage of organic solvent (CH3CN) in the mobile phase from each isocratic run was plotted against […] (Figure S34). Since log kw is the chromatographic lipophilicity index or measure of lipophilicity of the complex, a higher value corresponds to greater lipophilicity. Since PCLB, 5CLB, and 56CLB are structurally related, there were no significant variations in lipophilicity noted based on the calculated log kw values (Table 4). It is evident that PCLB is the least lipophilic of the group, with a calculated log kw value of 1.80, which is likely due to the absence of methyl groups in its phenanthroline system. 5CLB and 56CLB were the most lipophilic of the group with calculated log kw values of 1.90 and 1.87, respectively, and this is due to the presence of methyl substituents in their phenanthroline systems. […] Additionally, the chromatographic lipophilicity index of CLB was also measured using the abovementioned method, with a calculated log kw of 1.88, which is within the range observed for PCLB, 5CLB, and 56CLB. However, CLB was approximately 1-fold more lipophilic than PCLB. […] The order of increasing lipophilicity is […].
For lipophilicity measurements, analytical HPLC was utilized. Elution profiles were acquired on an Agilent Technologies 1260 Infinity instrument equipped with a Phenomenex Onyx^TM Monolithic C18-reverse phase column (100 × 4.6 mm, 5 µm pore size). The mobile phase consisted of solvents, A (0.06% TFA in d.i.H2O) and B (0.06% TFA in CH3CN/d.i.H2O (90:10)). Potassium iodide was used as an external dead volume marker to determine the dead time of the column. Retention times (TR) were measured at varying isocratic ratios ranging from 42% to 48% of solvent B at 1 mL/min. An injection volume of 10 µL was utilized. Capacity factors were determined according to Equation (1):(1) k=(TR−T0)/T0, where k is the capacity factor, TR is the retention time of the analyte, and T0 represents the dead time. A minimum of four different mobile compositions were used for each complex to calculate k. A linear plot was generated of log k against the concentration of CH3CN in the mobile phase to determine the value of log kw expressed by Equation (2):(2) logk=Sφ+logkw, where S is the slope, φ is the concentration of the CH3CN in the mobile phase and log kw represents the capacity factor of the complex in 100% d.i.H2O. […]

Another data set has as its system HT29 colon. Kind of data set: MTT growth inhibition assay, 72 h. In kind it is cell-based, human. To be noted: MTT, 72 h.
The next data set concerns HT29 colon cells. Nature of the data set: ROS detection assay (DCFH-DA fluorescence). Type of data set: cell-based, human. Conditions: compounds at GI50 concentration, TBHP and NAC 20 μM. As to the method: HT29 colon cells were stained by DCFH-DA and then treated with the compounds at each specific GI50 concentration. Upon ROS production, the DCFH-DA produced […], a fluorescent product. The measured fluorescence was, therefore, proportional to the produced ROS. […] 56CLB at 24 h reported 395 RFU, 437 RFU at 48 h, and 558 RFU at 72 h (Table 6, Figure 14 and Figure S42), respectively, showing a significant production of ROS in comparison to control cells. 5CLB at 24 h produced 337 RFU, 324 RFU at 48 h, and 376 RFU at 72 h (Table 6, Figure 14 and Figure S42), respectively.
To investigate for the presence of ROS in treated cells, DCFDA/H2DCFDA-cellular ROS Assay Kit (Abcam, Cambridge, MA, USA) was used, as described. A total of 25,000 cells/mL of HT29 cells in DMEM were seeded in 96-well plates. Cells were washed with 1X kit buffer, then stained with 25 μM 2’,7’-dichlorofluorescein diacetate (DCFH-DA) and incubated for 45 min. DCFH-DA was then removed, and cells were then re-washed with 1X kit buffer, after which phenol red free media was added. Cells were then treated with GI50 drug concentration for each complex. The plates were directly scanned to measure fluorescence (relative fluorescence units (RFU)) at different time points using the Glo-Max®-Multimode microplate reader (Promega Corporation, Alexandra, VIC, Australia) at an excitation/emission of 485/535 nm. To generate the positive control (20 μM tert-butyl hydroperoxide (TBHP)), cells were washed with 1X kit buffer, and stained with DCFDA (25 μM) for 45 min. DCFDA was then removed and TBHP was added in phenol red free media. The plate was scanned to measure the RFU at different time points as mentioned above. The same method applies for the negative control treated with 20 μM N-acetylcysteine (NAC).

The test system of a further data set is U87 glioblastoma. Nature of the data set: MTT growth inhibition assay, 72 h. In kind it is cell-based, human.
Another data set has as its system BE2-C neuroblastoma. Kind of data set: MTT growth inhibition assay, 72 h. In kind it is cell-based, human.
The next data set has as its system H460 lung. Kind of data set: MTT growth inhibition assay, 72 h. In kind it is cell-based, human.
The subject of another data set is MCF-7 breast. Kind of data set: MTT growth inhibition assay, 72 h. In kind it is cell-based, human. To be noted: for GI50: MTT, 72 h.
In the next data set the test system is Du145 prostate. Kind of data set: MTT growth inhibition assay, 72 h. Type of data set: cell-based, human. To be noted: for GI50: MTT, 72 h.
A further data set relates to panel of cell lines. Kind of data set: MTT growth inhibition assay, 72 h, over the cell line panel. Conditions: average over all cell lines tested; read-out: Average GI50 Values. In kind it is cell-based, human.
In the next data set the test system is SJ-G2 glioblastoma. Kind of data set: MTT growth inhibition assay, 72 h. Type of data set: cell-based, human.

Molecules are shown by their SMILES. Where “and” joins values, the source holds several entries; their conditions need not be identical. Equal values may be shown once.

Data on three compounds can be found in PMC9499463, “Potent Chlorambucil-Platinum(IV) Prodrugs” (International Journal of Molecular Sciences, 2022).

As for `Cc1cc2cccnc2c2ncccc12.N[C@H]1CCCC[C@@H]1N.O=C([O-])CCCc1ccc(N(CCCl)CCCl)cc1.O=[N+]([O-])[O-].O=[N+]([O-])[O-].[OH-].[Pt+4]` [5CLB, [Pt^IV(5-methyl-1,10-phenanthroline)(S,S-DACH)(CLB)(OH)](NO3)2], the GI50 stood at 46 ± 0.015 nM in the data set on A2780 ovarian; 19 ± 0.0054 nM with HT29 colon; 250 ± 0.015 nM in the data set with U87 glioblastoma; 230 ± 0.039 nM with BE2-C neuroblastoma; 39 ± 0.013 nM in the data set on H460 lung; 180 ± 0.017 nM with MCF-7 breast. For the same compound, the GI50 in the data set on Du145 prostate was 14 ± 0.004 nM; with panel of cell lines, 94 ± 0.01 nM; in the data set with SJ-G2 glioblastoma, 180 ± 0.02 nM. For the same compound, the log kw in [1] is 1.90 and 1.87. The “ROS Production” value with HT29 colon cells (24 h) was 337 RFU and 337 ± 8 RFU; in the data set on HT29 colon cells (48 h), 324 RFU and 324 ± 5 RFU; in the data set with HT29 colon cells (72 h), 376 RFU and 376 ± 1 RFU. Further, the “fold by which the cisplatin prodrug incorporating two CLB ligands (Ma et al.) is less potent” value (shortened to “fold … (Ma et al.) is less potent”) with MCF-7 breast (MCF-7 cell line) stood at 12 fold.

With `Cc1c(C)c2cccnc2c2ncccc12.N[C@H]1CCCC[C@@H]1N.O=C([O-])CCCc1ccc(N(CCCl)CCCl)cc1.O=[N+]([O-])[O-].O=[N+]([O-])[O-].[OH-].[Pt+4]` [56CLB, [Pt^IV(5,6-dimethyl-1,10-phenanthroline)(S,S-DACH)(CLB)(OH)](NO3)2], the GI50 in the data set with A2780 ovarian was 21 ± 0.0047 nM; in the data set on HT29 colon, 6 nM and 6.1 nM; with U87 glioblastoma, 93 ± 0.0067 nM; with BE2-C neuroblastoma, 140 ± 0.012 nM; in the data set with H460 lung, 13 ± 0.0056 nM; in the data set with MCF-7 breast, 63 ± 0.015 nM. The GI50 in the data set with Du145 prostate was 3 nM and 2.7 nM; with panel of cell lines it was 40 nM and 44 nM; with SJ-G2 glioblastoma it was 130 ± 0.03 nM. Also, the log kw in data set [1] was 1.87 and 1.90. In addition, the “ROS Production” value with HT29 colon cells (24 h) is 395 RFU and 395 ± 3 RFU; with HT29 colon cells (48 h) it was 437 RFU and 437 ± 2 RFU; in the data set on HT29 colon cells (72 h), 558 RFU and 558 ± 2 RFU. In addition, in the data set with MCF-7 breast, the “fold more potent than oxaliplatin-CLB prodrug of Qin et al.” value was around 200 fold. In the data set on MCF-7 breast (MCF-7 cell line), the “fold … (Ma et al.) is less potent” value was 35 fold. The “fold more potent than cisplatin-CLB prodrug of Qin et al.” value in the data set with MCF-7 breast (MCF-7 cell line) is “about 63 fold”. The “fold increase in potency compared to CLB” value in the data set with Du145 prostate (Du145 prostate cell line) is 10,000 fold. In the data set on Du145 prostate (Du145 prostate cell line), the “fold more potent than cisplatin” value is recorded as “at least 440 fold”.

`O=C(CCCc1ccc(N(CCCl)CCCl)cc1)[O][Pt-2]12([OH])([NH2+][C@H]3CCCC[C@@H]3[NH2+]1)[n+]1cccc3ccc4ccc[n+]2c4c31.O=[N+]([O-])[O-].O=[N+]([O-])[O-]` [PCLB, [Pt^IV(1,10-phenanthroline)(S,S-DACH)(CLB)(OH)](NO3)2]: the GI50 in the data set on A2780 ovarian amounted to 300 ± 0.048 nM; with HT29 colon, 170 ± 0.046 nM; in the data set with U87 glioblastoma, 1200 ± 0.28 nM; with BE2-C neuroblastoma, 440 ± 0.03 nM; in the data set with H460 lung, 460 ± 0.063 nM; in the data set with MCF-7 breast, 680 ± 0.043 nM. Moreover, the GI50 in the data set on Du145 prostate was determined as 210 ± 0.12 nM; in the data set with panel of cell lines it was 423 ± 0.07 nM; with SJ-G2 glioblastoma, 320 ± 0.04 nM. Also, the log kw in data set [1] is on record as 1.80. Also, the “ROS Production” value is 190 RFU and 190 ± 2 RFU with HT29 colon cells (24 h); 244 RFU and 244 ± 7 RFU with HT29 colon cells (48 h); 285 RFU and 285 ± 3 RFU in the data set with HT29 colon cells (72 h). Moreover, the “fold … (Ma et al.) is less potent” value in the data set on MCF-7 breast (MCF-7 cell line) came to 3 fold.
